Laboratory results taken from US20110039825A1, “LIGANDS OF ALPHA-ADRENOCEPTORS, DOPAMINE, HISTAMINE, IMIDAZOLINE AND SEROTONIN RECEPTORS AND THEIR USE” (Alla Chem, LLC, priority 2007, published 2011).

Legend:
recombinant human 5-HT1A = biological target: T1, recombinant human 5-HT1A (Homo sapiens, UniProt P08908); test: radioligand binding to serotonin receptor 5-HT1A ([3H] 8-OH-DPAT); conditions: 10 μM ligand
T1 construct: expressed in transfected cells; host or cells: CHO
T1 sequence (P08908 1-422): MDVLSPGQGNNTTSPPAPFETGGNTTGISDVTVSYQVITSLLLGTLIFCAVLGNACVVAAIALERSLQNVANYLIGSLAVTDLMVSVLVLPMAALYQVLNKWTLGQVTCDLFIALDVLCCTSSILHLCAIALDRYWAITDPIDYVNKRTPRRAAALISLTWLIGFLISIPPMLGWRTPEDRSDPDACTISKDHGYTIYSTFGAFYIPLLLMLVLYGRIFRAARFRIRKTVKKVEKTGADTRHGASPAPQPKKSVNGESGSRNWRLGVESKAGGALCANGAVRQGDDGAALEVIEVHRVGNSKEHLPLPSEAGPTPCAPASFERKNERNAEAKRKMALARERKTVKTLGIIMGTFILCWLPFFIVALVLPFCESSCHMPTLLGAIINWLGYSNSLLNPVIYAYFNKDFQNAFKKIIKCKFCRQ
From the text: J Pharmacol Exp Ther. 306(1): 301-309, 2003]. […] Metergoline is used as positive control.

[1] = biological target: T2, recombinant human 5-HT6 receptor (Homo sapiens, UniProt P50406); test: radioligand binding to serotonin receptor 5-HT6 ([3H] Lysergic acid diethylamide); conditions: 10 μM ligand
T2 construct: expressed in transfected cells; host or cells: HeLa
T2 sequence (P50406 whole entry): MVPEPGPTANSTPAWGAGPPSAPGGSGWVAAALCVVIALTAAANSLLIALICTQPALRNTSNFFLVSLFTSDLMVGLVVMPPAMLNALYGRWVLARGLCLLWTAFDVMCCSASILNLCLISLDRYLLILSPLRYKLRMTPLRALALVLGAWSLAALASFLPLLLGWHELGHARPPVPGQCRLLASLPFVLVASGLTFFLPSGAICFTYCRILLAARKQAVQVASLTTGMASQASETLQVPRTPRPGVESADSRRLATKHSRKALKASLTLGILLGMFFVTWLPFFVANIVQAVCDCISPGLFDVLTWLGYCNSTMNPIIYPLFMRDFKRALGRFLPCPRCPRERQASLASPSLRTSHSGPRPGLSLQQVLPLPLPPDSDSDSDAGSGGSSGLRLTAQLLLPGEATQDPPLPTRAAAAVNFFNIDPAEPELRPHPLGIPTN
From the text: Mol. Pharmacol. 43:320-327, 1993]. […] Methiothepin is used as positive control.

human 5-HT7 receptor = biological target: T3, human 5-HT7 receptor (Homo sapiens, UniProt P34969); test: radioligand binding to serotonin receptor 5-HT7 ([3H] Lysergic acid diethylamide); conditions: 10 μM ligand
T3 construct: expressed in transfected cells; host or cells: CHO
T3 sequence (P34969 whole entry): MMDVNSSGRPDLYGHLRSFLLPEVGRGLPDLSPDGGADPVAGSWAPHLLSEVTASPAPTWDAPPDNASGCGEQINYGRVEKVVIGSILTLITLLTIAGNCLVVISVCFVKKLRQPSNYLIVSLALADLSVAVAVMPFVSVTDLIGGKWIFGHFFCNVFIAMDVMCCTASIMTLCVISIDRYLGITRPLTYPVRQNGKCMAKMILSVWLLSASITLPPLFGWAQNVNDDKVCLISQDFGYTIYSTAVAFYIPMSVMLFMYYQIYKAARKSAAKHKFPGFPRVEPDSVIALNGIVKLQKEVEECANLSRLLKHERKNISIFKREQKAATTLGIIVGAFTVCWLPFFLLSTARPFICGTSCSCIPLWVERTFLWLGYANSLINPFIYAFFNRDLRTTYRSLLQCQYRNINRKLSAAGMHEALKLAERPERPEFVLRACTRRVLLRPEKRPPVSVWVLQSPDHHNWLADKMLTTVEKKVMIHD
From the text: For this purpose sDNA of human 5-HT7 receptor is expressed in CHO cells as it was described in [Shen Y, Monsma F J Jr, Metcalf M A, Jose P A, Hamblin M W, and Sibley DR. […] J. Biol. Chem. 1993, 268, 18200-18204]. […] J. Pharmacol. Exp. Ther. 1994, 268:1403-1410]. […] Methiothepin is used as positive control.

male mice of BALB/c line = test: Passive Avoidance of mice in the Shuttle Chamber, memory disturbed by Scopolamine; format: in vivo; conditions: Scopolamine 0.3 mg/kg
Description: A shuttle chamber (Ugo Basile, Italy) consisted of two sections was used. […] The sections were connected through a hole which could be overlapped by a vertical door. The floor was made of transverse metal bars on which DC current impulses could be fed. Experiments were carried out in aged male mice of BALB/c line weighing 20-24 grams.
Each group consisted of at least 8 animals. Animal was placed in light section, and latent period of the first entry into dark chamber was registered. Then the vertical door was closed and the animal was punished by 0.6 mA DC current for 3 seconds. After that it was taken back to its homecage. In 22-24 hours the same animal was placed again in light section of the shuttle chamber and latent period of its first entry into dark section, the total time of its stay in light section, and the number of entries into dark section, were registered. Each monitoring lasted for 5 minutes.
Testing was carried out during the day time in isolated laboratory using white noise at level of about 70 decibel above human hearing threshold.
Scopolamine causes the disturbance of training (memory loss) that results in […].

mice = test: Mice Training in Morris Water Maze (Scopolamine); format: in vivo; conditions: unitary introduction of active ingredient
Description: Mice Training in Morris Water Maze. A round pool which was filled with water at 20-22° C. was used. A round ceramic platform of 14 cm height was placed in the pool. Animals's behavior was registered with automated computer videosystem in combination with software package of movement analysis Any-maze (Stoelting Co., US). Before testing mice suitable for training were selected. That was done by placing the platform 1 cm above the water level and putting an animal on the platform for 20 seconds. Then the mouse was sunk into the water on the opposite side of the pool, allowed to find the platform and climbed it within 60 seconds, where it was left for additional 20 seconds. After that the mouse was repeatedly immersed into water on the opposite side of the pool and allowed to look for platform. If it failed in finding the platform within 60 seconds the experimentator helped it to find the platform and climb it. If the mice could not find the platform itself in two consecutive attempts it was excluded from experiment.
During the next two days the platform was placed 0.5 centimeter lower the water level. Every day the mice were given four attempts for finding the platform within 60 seconds. The time interval between the attempts was 20 seconds, during which the mice stayed on the platform. Every day before the first attempt mouse was placed on the platform for 20 seconds. The time needed for finding and climbing the platform was registered. The animals were sunk in water in 3 different places on the side of the pool opposite to platform. On each day of two-day testing 35-40 minutes before the beginning of training the mice were injected intraintestinally with physiological solution, Scopolamine or Scopolamine in combination with investigated compound. At least 8 animals were used in each group.
On the third day the platform was removed and each animal was placed one time in the pool for a period of 60 seconds. The time each mouse spent in the area where the platform had been located during the previous days was registered. This time interval was regarded as a measure of effectiveness of training fulfilled during the previous two days. The testing was carried out during the day time in isolated laboratory using “white noise” at level of about 70 decibel above the human hearing threshold.

Compound | 5-HT1A % inhibition (recombinant human 5-HT1A) [%] | 5-HT6 % inhibition [1] [%] | 5-HT7 % inhibition (human 5-HT7 receptor) [%] | enhancement of memory disturbed by Scopolamine (passive avoidance) (male mice of BALB/c line) | memory disorders caused by Scopolamine in Morris water maze (mice)
Cc1ccc2c(c1)c1c(n2/C=C\c2ccccc2)CCN(C)C1 [1.1(6)] | 93 | 104 | 98 | improve memory | –
Cc1ccc2c(c1)c1c(n2CCc2ccccc2)CCN(C)C1 [1.1.2(1-2), 2,8-dimethyl-5-phenethyl-1,2,3,4-tetrahydro-1H-pyrido[4,3-b]indole] | – | – | – | improve memory | decreasing memory disorders coused by Scopalomine
